Earlier results, collected in patent US20210315915A1, “PHARMACEUTICAL COMPOSITIONS OF RIBAVIRIN” (GlaxoSmithKline Intellectual Property (No.2) Limited, priority 2015, published 2021).

Experiments:
[1] = crystalline white powder
[2] = FDA approved labeling of Rebetol

For `NC(=O)c1ncn([C@@H]2O[C@H](CO)[C@@H](O)[C@H]2O)n1` [ribavirin, 1-β-D-ribofuranosyl-1H-1,2,4-triazole-3-carboxamide], the “solubility in ethanol (96%)” value [1] is listed as “slightly soluble”, the solubility in water [1] is listed as “freely soluble” and the multiple-dose half-life [2] is listed as 12 days. The “persistence in nonplasma compartments” value [2] was ≤ 6 months.
